In ChEMBL document CHEMBL1201861, “Genomics of Drug Sensitity in Cancer screening data, Wellcome Trust Sanger Institute”:

Assays:
Assay in all cases: cells
SH-4 = format: functional, cell-based, Homo sapiens; conditions: Homo sapiens, SH-4;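 also: growth inhibition of SH-4 cells, read out with a cell viability assay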
Description: SANGER: Inhibition of human SH-4 cell growth in a cell viability assay.

L-363 = format: functional, cell-based; conditions: Homo sapiens
Description: SANGER: Inhibition of human L-363 cell growth in a cell viability assay.

TE-8 = format: functional, cell-based, Homo sapiens; conditions: Homo sapiens, TE-8;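 also: growth inhibition of TE-8 cells, measured with a cell viability readout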
Description: SANGER: Inhibition of human TE-8 cell growth in a cell viability assay.

BB30-HNC = format: functional, cell-based, Homo sapiens; conditions: Homo sapiens, BB30-HNC;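 also: growth inhibition of the cultured cell line, read out by a cell viability assay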
Description: SANGER: Inhibition of human BB30-HNC cell growth in a cell viability assay.

KYSE-510 = format: functional, cell-based, Homo sapiens; conditions: Homo sapiens, KYSE-510;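 also: cell viability readout used to measure how strongly growth of the cell line is suppressed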
Description: SANGER: Inhibition of human KYSE-510 cell growth in a cell viability assay.

TE-1 = format: functional, cell-based, Homo sapiens; conditions: Homo sapiens, TE-1;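 also: growth inhibition of the human TE-1 cell line, read out with a cell viability assay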
Description: SANGER: Inhibition of human TE-1 cell growth in a cell viability assay.

DMS-273 = format: functional, cell-based, Homo sapiens; conditions: Homo sapiens, DMS-273
Description: SANGER: Inhibition of human DMS-273 cell growth in a cell viability assay.

Panc1005 = format: functional, cell-based, Homo sapiens; conditions: Homo sapiens, Panc1005;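 also: growth inhibition of human PANC-10-05 cells, measured by a cell viability assay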
Description: SANGER: Inhibition of human PANC-10-05 cell growth in a cell viability assay.

ATN-1 = format: functional, cell-based; conditions: Homo sapiens;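 also: growth inhibition of human ATN-1 cells, read out with a cell viability assay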
Description: SANGER: Inhibition of human ATN-1 cell growth in a cell viability assay.

HCC 2998 = format: functional, cell-based, Homo sapiens; conditions: Homo sapiens, HCC 2998;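 also: growth inhibition of human HCC2998 cells, measured with a cell viability read-out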
Description: SANGER: Inhibition of human HCC2998 cell growth in a cell viability assay.

LB771-HNC = format: functional, cell-based, Homo sapiens; conditions: Homo sapiens, LB771-HNC;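 also: growth inhibition of LB771-HNC human cells, read out with a cell viability assay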
Description: SANGER: Inhibition of human LB771-HNC cell growth in a cell viability assay.

8505C = format: functional, cell-based, Homo sapiens; conditions: Homo sapiens, 8505C
Description: SANGER: Inhibition of human 8505C cell growth in a cell viability assay.

NCI-H1793 = format: functional, cell-based, Homo sapiens; conditions: Homo sapiens, NCI-H1793;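 also: cell growth inhibition, read out by a cell viability assay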
Description: SANGER: Inhibition of human NCI-H1793 cell growth in a cell viability assay.

MZ1-PC = format: functional, cell-based, Homo sapiens; conditions: Homo sapiens, MZ1-PC;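 also: cell viability assay measuring growth inhibition of human MZ1-PC cells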
Description: SANGER: Inhibition of human MZ1-PC cell growth in a cell viability assay.

HT-29 = format: functional, cell-based, Homo sapiens; conditions: Homo sapiens, HT-29;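 also: growth inhibition of human HT-29 cells, read out by a cell viability assay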
Description: SANGER: Inhibition of human HT-29 cell growth in a cell viability assay.

LXF-289 cell line = format: functional, cell-based, Homo sapiens; conditions: Homo sapiens, LXF-289
Description: SANGER: Inhibition of human LXF-289 cell growth in a cell viability assay.

MDA-MB-231 = format: functional, cell-based, Homo sapiens; conditions: Homo sapiens, MDA-MB-231
Description: SANGER: Inhibition of human MDA-MB-231 cell growth in a cell viability assay.

RCM-1 = format: functional, cell-based, Homo sapiens; conditions: Homo sapiens, RCM-1;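 also: growth inhibition of the RCM-1 line, determined with a cell viability readout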
Description: SANGER: Inhibition of human RCM-1 cell growth in a cell viability assay.

CAKI-1 = format: functional, cell-based, Homo sapiens; conditions: Homo sapiens, CAKI-1;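 also: growth inhibition of CAKI-1 cells, measured by a cell viability assay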
Description: SANGER: Inhibition of human CAKI-1 cell growth in a cell viability assay.

DB = format: functional, cell-based; conditions: Homo sapiens
Description: SANGER: Inhibition of human DB cell growth in a cell viability assay.

SW 954 = format: functional, cell-based, Homo sapiens; conditions: Homo sapiens, SW 954;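 also: growth inhibition of SW954 human cancer cells, read out as cell viability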
Description: SANGER: Inhibition of human SW954 cell growth in a cell viability assay.

MZ7-mel = format: functional, cell-based, Homo sapiens; conditions: Homo sapiens, MZ7-mel;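 also: growth inhibition of human MZ7-mel cells, measured by a cell viability assay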
Description: SANGER: Inhibition of human MZ7-mel cell growth in a cell viability assay.

EFM-19 = format: functional, cell-based, Homo sapiens; conditions: Homo sapiens, EFM-19;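 also: growth inhibition of human EFM-19 cells, measured in a cell viability assay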
Description: SANGER: Inhibition of human EFM-19 cell growth in a cell viability assay.

SW1783 = format: functional, cell-based; conditions: Homo sapiens;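 also: cell growth inhibition measured with a viability assay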
Description: SANGER: Inhibition of human SW1783 cell growth in a cell viability assay.

U-87 MG = format: functional, cell-based, U-87MG ATCC; conditions: Homo sapiens;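 also: growth inhibition of the cells measured with a viability assay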
Description: SANGER: Inhibition of human U-87-MG cell growth in a cell viability assay.

SF-539 = format: functional, cell-based, Homo sapiens; conditions: Homo sapiens, SF-539;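 also: Read-out is a cell viability assay, with IC50 reflecting inhibition of cell growth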
Description: SANGER: Inhibition of human SF539 cell growth in a cell viability assay.

KOSC-2 = format: functional, cell-based, Homo sapiens; conditions: Homo sapiens, KOSC-2;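 also: growth inhibition of KOSC-2 cells, read out by a cell viability assay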
Description: SANGER: Inhibition of human KOSC-2 cell growth in a cell viability assay.

RKO = format: functional, cell-based, Homo sapiens; conditions: Homo sapiens, RKO;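 also: growth inhibition of human RKO cells, read out with a cell viability assay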
Description: SANGER: Inhibition of human RKO cell growth in a cell viability assay.

SW1088 = format: functional, cell-based, Homo sapiens; conditions: Homo sapiens, SW1088;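 also: growth inhibition of human SW1088 cells, read out by a cell viability assay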
Description: SANGER: Inhibition of human SW1088 cell growth in a cell viability assay.

NCI-H1395 = format: functional, cell-based, Homo sapiens; conditions: Homo sapiens, NCI-H1395;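 also: cell viability assay read-out quantifying reduced proliferation of human NCI-H1395 cells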
Description: SANGER: Inhibition of human NCI-H1395 cell growth in a cell viability assay.

T84 = format: functional, cell-based, Homo sapiens; conditions: Homo sapiens, T84;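 also: growth inhibition measured with a cell viability readout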
Description: SANGER: Inhibition of human T84 cell growth in a cell viability assay.

SW780 = format: functional, cell-based, Homo sapiens; conditions: Homo sapiens, SW780;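 also: growth inhibition of the cells, read out with a cell viability assay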
Description: SANGER: Inhibition of human SW780 cell growth in a cell viability assay.

KMOE-2 = format: functional, cell-based; conditions: Homo sapiens;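 also: growth inhibition of human KMOE-2 cells, read out with a cell viability assay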
Description: SANGER: Inhibition of human KMOE-2 cell growth in a cell viability assay.

NCI-N87 = format: functional, cell-based, Homo sapiens; conditions: Homo sapiens, NCI-N87;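 also: growth inhibition of human NCI-N87 cells, read out with a cell viability assay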
Description: SANGER: Inhibition of human NCI-N87 cell growth in a cell viability assay.

SAS = format: functional, cell-based, Homo sapiens; conditions: Homo sapiens, SAS;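 also: growth inhibition of SAS cells, read out with a cell viability assay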
Description: SANGER: Inhibition of human SAS cell growth in a cell viability assay.

NCI-H292 = format: functional, cell-based, Homo sapiens; conditions: Homo sapiens, NCI-H292;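 also: growth inhibition of NCI-H292 cells, read out with a cell viability assay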
Description: SANGER: Inhibition of human NCI-H292 cell growth in a cell viability assay.

KINGS-1 = format: functional, cell-based, Homo sapiens; conditions: Homo sapiens, KINGS-1;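 also: cell viability assay measuring suppression of KINGS-1 cell growth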
Description: SANGER: Inhibition of human KINGS-1 cell growth in a cell viability assay.

ACHN = format: functional, cell-based, Homo sapiens; conditions: Homo sapiens, ACHN;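 also: cell viability read-out used to gauge how strongly growth of human ACHN cells is suppressed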
Description: SANGER: Inhibition of human ACHN cell growth in a cell viability assay.

HT-144 = format: functional, cell-based, Homo sapiens; conditions: Homo sapiens, HT-144
Description: SANGER: Inhibition of human HT-144 cell growth in a cell viability assay.

SK-MEL-30 = format: functional, cell-based; conditions: Homo sapiens;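 also: growth inhibition of SK-MEL-30 cells, determined with a cell viability assay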
Description: SANGER: Inhibition of human SK-MEL-30 cell growth in a cell viability assay.

BB65-RCC = format: functional, cell-based, Homo sapiens; conditions: Homo sapiens, BB65-RCC;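 also: growth inhibition of the cell line, measured with a cell viability assay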
Description: SANGER: Inhibition of human BB65-RCC cell growth in a cell viability assay.

SK-MEL-1 = format: functional, cell-based; conditions: Homo sapiens;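 also: growth inhibition of human SK-MEL-1 cells, read out by a cell viability assay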
Description: SANGER: Inhibition of human SK-MEL-1 cell growth in a cell viability assay.

TK-10 = format: functional, cell-based, Homo sapiens; conditions: Homo sapiens, TK-10;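 also: growth inhibition of TK-10 cells, read out in a cell viability assay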
Description: SANGER: Inhibition of human TK10 cell growth in a cell viability assay.

RPMI-8226 = format: functional, cell-based; conditions: Homo sapiens
Description: SANGER: Inhibition of human RPMI-8226 cell growth in a cell viability assay.

NTERA-2-cl-D1 = format: functional, cell-based, Homo sapiens; conditions: Homo sapiens, NTERA-2-cl-D1;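 also: inhibition of cell growth, measured with a cell viability assay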
Description: SANGER: Inhibition of human NTERA-S-cl-D1 cell growth in a cell viability assay.

FTC-133 = format: functional, cell-based, Homo sapiens; conditions: Homo sapiens, FTC-133
IGR-1 = format: functional, cell-based, Homo sapiens; conditions: Homo sapiens, IGR-1;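 also: growth inhibition of human IGR-1 cells, read out with a cell viability assay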
Description: SANGER: Inhibition of human IGR-1 cell growth in a cell viability assay.

RPMI-7951 = format: functional, cell-based, Homo sapiens; conditions: Homo sapiens, RPMI-7951
Description: SANGER: Inhibition of human RPMI-7951 cell growth in a cell viability assay.

HAL-01 = format: functional, cell-based; conditions: Homo sapiens;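 also: growth inhibition of human HAL-01 cells, read out with a cell viability assay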
Description: SANGER: Inhibition of human HAL-01 cell growth in a cell viability assay.

NCI-H1155 = format: functional, cell-based; conditions: Homo sapiens;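 also: cell growth inhibition measured by a viability assay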
Description: SANGER: Inhibition of human NCI-H1155 cell growth in a cell viability assay.

EOL1 = format: functional, cell-based; conditions: Homo sapiens;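 also: growth inhibition of EoL-1 cells, read out by a cell viability assay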
Description: SANGER: Inhibition of human EoL-1-cell cell growth in a cell viability assay.

HCC2157 = format: functional, cell-based; conditions: Homo sapiens;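 also: growth inhibition of the cancer cell line, read out as cell viability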
Description: SANGER: Inhibition of human HCC2157 cell growth in a cell viability assay.

Measured: IC50

CN(Cc1cnc2nc(N)nc(N)c2n1)c1ccc(C(=O)N[C@@H](CCC(=O)O)C(=O)O)cc1 [METHOTREXATE]
0.0853 µM: ACHN
0.153 µM: HT-29
0.0213 µM: DB
0.0974 µM: KMOE-2
0.0917 µM: KYSE-510
0.00392 µM: ATN-1
0.0143 µM: L-363
0.0223 µM: HAL-01
0.0943 µM: BB30-HNC
0.101 µM: RPMI-8226
0.116 µM: SW780
not listed: EOL1 | HCC2157
> 0.2 µM: all other assays above

COc1ccc(C2=N[C@@H](c3ccc(Cl)cc3)[C@@H](c3ccc(Cl)cc3)N2C(=O)N2CCNC(=O)C2)c(OC(C)C)c1 [NUTLIN-3]
1.27 µM: EOL1
6.56 µM: SW 954
2.65 µM: HT-144
3.54 µM: RKO
3.12 µM: NCI-H292
3.13 µM: CAKI-1
2.51 µM: SW780
not listed: KMOE-2
> 8 µM: all other assays above

Cn1cc(C2=C(c3ccc(Cl)cc3Cl)C(=O)NC2=O)c2ccccc21 [SB-216763]
not listed: EOL1 | HCC2157
> 10 µM: all other assays above

C=CCNC1=C2C[C@@H](C)C[C@H](OC)[C@H](O)[C@@H](C)/C=C(\C)[C@H](OC(N)=O)[C@@H](OC)/C=C\C=C(/C)C(=O)NC(=CC1=O)C2=O [TANESPIMYCIN]
0.114 µM: SH-4
0.79 µM: IGR-1
0.737 µM: EFM-19
0.165 µM: FTC-133
0.321 µM: CAKI-1
0.127 µM: SAS
0.231 µM: TK-10
0.0692 µM: HT-29
0.00717 µM: RPMI-7951
0.106 µM: BB65-RCC
0.385 µM: NCI-H1793
0.176 µM: MZ7-mel
0.0735 µM: HCC 2998
0.177 µM: KOSC-2
0.131 µM: NCI-H292
0.912 µM: SK-MEL-30
0.663 µM: RPMI-8226
0.292 µM: SW 954
0.103 µM: U-87 MG
0.262 µM: NCI-H1155
0.606 µM: ACHN
0.388 µM: HCC2157
0.0309 µM: HT-144
0.092 µM: TE-1
0.113 µM: TE-8
0.339 µM: DMS-273
0.00419 µM: LXF-289 cell line
0.173 µM: BB30-HNC
0.412 µM: Panc1005
0.0821 µM: L-363
0.187 µM: NCI-H1395
0.328 µM: NTERA-2-cl-D1
0.0668 µM: SF-539
0.0259 µM: NCI-N87
0.164 µM: SW1088
0.118 µM: RKO
0.245 µM: KINGS-1
0.0465 µM: KYSE-510
0.34 µM: SW1783
0.042 µM: SW780
0.222 µM: EOL1
1 µM: 8505C
not listed: KMOE-2
> 1 µM: all other assays above
